# Data reported in the supplement of paper PMC10307832.
# Experiments:
# Assay in all cases: relative viability (nuclei count vs DMSO), 5 days (fraction); higher = more cells survive
# [1] = compound: COc1cc2nccc(Oc3ccc(NC(=O)C4(C(=O)Nc5ccc(F)cc5)CC4)cc3)c2cc1OC [Cabozantinib] + N=C(N)NC(=N)NCCc1ccccc1 [Phenformin] (partner 250 µM)
# Procedure, shortened: (§1)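 Relative viability divides the nuclei count in treated wells by that in vehicle wells. Lung cancer cell lines were seeded in 1536-well plates, dosed by pin tool the next day, and fixed and stained after 5 days in one step with final 0.05% Triton X-100, 1% formaldehyde and 1 ug/ml Hoechst. Dosing was a single drug or a fixed anchor-drug dose plus five library-drug doses (not always all listed) in √10 steps, and values are medians of duplicate plates imaged at 4×.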
# Cabozantinib + AZD7762 = compound: COc1cc2nccc(Oc3ccc(NC(=O)C4(C(=O)Nc5ccc(F)cc5)CC4)cc3)c2cc1OC [Cabozantinib] + NC(=O)Nc1cc(-c2cccc(F)c2)sc1C(=O)N[C@H]1CCCNC1 [AZD7762] (partner 0.2 µM)
# Procedure, shortened: as §1
# Cabozantinib + Dasatinib = compound: COc1cc2nccc(Oc3ccc(NC(=O)C4(C(=O)Nc5ccc(F)cc5)CC4)cc3)c2cc1OC [Cabozantinib] + Cc1nc(Nc2ncc(C(=O)Nc3c(C)cccc3Cl)s2)cc(N2CCN(CCO)CC2)n1 [Dasatinib] (partner 0.075 µM)
# Procedure, shortened: as §1
# Zosuquidar + Decitabine = compound: O[C@@H](COc1cccc2ncccc12)CN1CCN([C@@H]2c3ccccc3[C@@H]3[C@H](c4ccccc42)C3(F)F)CC1 [Zosuquidar] + Nc1ncn([C@H]2C[C@H](O)[C@@H](CO)O2)c(=O)n1 [Decitabine] (partner 2 µM)
# Procedure, shortened: as §1
Cell Line,relative viability ([1]; first compound 0.02 µM),relative viability ([1]; first compound 0.06325 µM),relative viability ([1]; first compound 0.2 µM),relative viability ([1]; first compound 0.6325 µM),relative viability ([1]; first compound 2 µM),relative viability (Cabozantinib + AZD7762; first compound 0.02 µM),relative viability (Cabozantinib + AZD7762; first compound 0.06325 µM),relative viability (Cabozantinib + AZD7762; first compound 0.2 µM),relative viability (Cabozantinib + AZD7762; first compound 0.6325 µM),relative viability (Cabozantinib + AZD7762; first compound 2 µM),relative viability (Cabozantinib + Dasatinib; first compound 0.02 µM),relative viability (Cabozantinib + Dasatinib; first compound 0.06325 µM),relative viability (Cabozantinib + Dasatinib; first compound 0.2 µM),relative viability (Cabozantinib + Dasatinib; first compound 0.6325 µM),relative viability (Cabozantinib + Dasatinib; first compound 2 µM),relative viability (Zosuquidar + Decitabine; first compound 0.01 µM),relative viability (Zosuquidar + Decitabine; first compound 0.03162 µM),relative viability (Zosuquidar + Decitabine; first compound 0.1 µM),relative viability (Zosuquidar + Decitabine; first compound 0.3162 µM),relative viability (Zosuquidar + Decitabine; first compound 1 µM)
201T,0.383,0.451,0.472,0.438,0.439,0.624,0.736,0.591,0.675,0.695,0.385,0.549,0.573,0.534,0.545,0.848,0.858,0.837,0.867,0.864
A549,0.407,0.173,0.215,0.156,0.147,–,–,–,–,–,–,–,–,–,–,0.264,0.116,–,0.318,0.301
A-427,0.374,0.321,0.427,0.359,0.232,0.757,0.806,0.788,0.772,0.683,0.81,0.705,0.695,0.706,0.795,0.582,0.561,0.584,0.653,0.557
ABC-1,0.244,0.276,0.235,0.28,0.218,0.678,0.843,0.733,0.844,0.632,0.515,0.567,0.596,0.55,0.525,1.27,1.15,1.15,1.24,1.15
BEN,0.251,0.259,0.284,0.268,0.274,0.624,0.891,0.746,0.773,0.59,0.294,0.391,0.313,0.318,0.232,0.695,0.664,0.659,0.822,0.787
CAL-12T,0.666,0.597,0.554,0.591,0.529,0.714,0.682,0.641,0.651,0.567,0.324,0.341,0.354,0.327,0.221,–,–,–,–,–
COR-L23,0.433,0.438,0.413,0.443,0.408,–,–,–,–,–,0.537,0.425,0.466,0.452,0.36,0.501,0.421,0.511,0.469,0.468
COR-L 105,0.387,0.477,–,0.581,0.481,–,–,–,–,–,0.352,0.283,–,0.314,0.314,0.645,0.712,0.636,0.716,0.652
ChaGo-K-1,0.424,0.519,0.469,0.513,0.501,0.927,0.943,0.868,0.872,0.857,0.552,0.652,0.519,0.634,0.542,0.552,0.448,0.534,0.536,0.477
EKVX,0.239,0.253,0.223,0.222,0.23,0.693,0.856,0.558,0.703,0.763,0.53,0.592,–,0.488,0.461,0.299,0.414,–,0.334,0.36
EMC-BAC-2,0.475,0.589,0.582,0.516,0.476,0.95,1.26,1.11,1.13,1.13,0.244,0.334,0.286,0.292,0.262,0.915,0.991,0.9,1.14,0.964
EPLC-272H,0.269,0.331,0.24,0.357,0.291,0.237,0.339,0.195,0.207,0.209,0.245,0.403,0.26,0.26,0.285,0.393,0.429,0.4,0.392,0.376
H3255,0.331,0.393,–,0.346,0.37,0.938,1.14,–,0.911,0.923,0.382,0.513,–,0.459,0.309,0.559,0.592,0.497,0.696,0.716
HARA,0.417,0.508,0.443,0.408,0.411,0.291,0.332,–,0.339,0.301,0.251,0.312,0.221,0.296,0.233,0.474,0.542,0.607,0.492,0.629
HCC-15,0.366,0.532,0.512,0.478,0.491,1.22,1.27,1.13,1.26,1.19,0.548,0.717,0.651,0.568,0.598,0.64,0.575,0.599,0.711,0.635
HCC-44,0.102,0.273,0.275,0.224,0.224,1.04,1.03,1.08,1.07,1.12,–,–,–,–,–,0.981,0.961,1,0.934,0.919
HCC-78,–,0.733,0.335,0.383,0.383,–,0.699,0.466,0.46,0.39,–,0.431,0.185,0.195,0.217,0.75,–,–,0.804,0.637
HCC-366,0.675,0.612,0.653,0.623,0.581,0.34,0.358,0.21,0.209,0.275,0.43,0.664,0.536,0.584,0.628,0.322,0.291,0.429,0.515,0.277
